SMILES strings stand for the structures.

The target in the first assay is T1, human TrkA (Homo sapiens, UniProt P04629).
T1 construct: purchased Lifetechnologies PV3144
T1 sequence (P04629 33-796): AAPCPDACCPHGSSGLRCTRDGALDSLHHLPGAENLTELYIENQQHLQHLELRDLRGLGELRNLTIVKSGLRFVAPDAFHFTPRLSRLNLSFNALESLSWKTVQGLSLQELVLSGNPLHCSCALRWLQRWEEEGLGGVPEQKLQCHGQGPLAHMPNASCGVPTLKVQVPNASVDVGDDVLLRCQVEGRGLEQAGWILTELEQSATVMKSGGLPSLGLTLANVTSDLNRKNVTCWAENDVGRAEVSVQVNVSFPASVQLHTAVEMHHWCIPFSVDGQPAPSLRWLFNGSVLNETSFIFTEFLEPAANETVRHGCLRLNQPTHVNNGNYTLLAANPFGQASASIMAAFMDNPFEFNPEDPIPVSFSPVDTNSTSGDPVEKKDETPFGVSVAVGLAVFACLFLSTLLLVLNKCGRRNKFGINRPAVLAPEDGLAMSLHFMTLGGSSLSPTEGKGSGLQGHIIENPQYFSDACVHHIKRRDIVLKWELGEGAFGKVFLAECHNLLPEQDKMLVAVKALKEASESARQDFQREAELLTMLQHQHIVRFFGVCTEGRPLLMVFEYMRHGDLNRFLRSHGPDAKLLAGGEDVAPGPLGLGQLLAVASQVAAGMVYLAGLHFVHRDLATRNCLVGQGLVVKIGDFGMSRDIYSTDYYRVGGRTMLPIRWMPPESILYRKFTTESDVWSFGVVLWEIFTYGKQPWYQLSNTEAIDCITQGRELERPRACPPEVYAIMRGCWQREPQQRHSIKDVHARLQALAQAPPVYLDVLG
Put plainly: Test Example 2: Human TrkA Inhibition Assay. It is filed as biochemical.
Settings: not given
On the procedure:
After the incubation for 90 min at room temperature, ten μL of termination buffer (100 mmol/L HEPES, 40 mmol/L ethylenediaminetetraacetic acid (EDTA), 10 mmol/L magnesium chloride, 0.003 vol % Brij-35, 0.004 vol % Tween20, 1 mmol/L DTT and 0.16 vol % Coating Reagent 3) was added in each well to stop the enzyme reaction. Fluorescent intensities (FI) of phosphorylated and non-phosphorylated fluorescent substrates were measured by LabChip EZReader II (Caliper LifeSciences, Inc.) and conversion ratio (CR) was calculated by the following formula-1. The CR in the well applied with DMSO alone was used as a negative control and the CR in the well without applying TrkA was used as a positive control. The inhibitory effect of each compound on TrkA phosphorylation was calculated by the following formula-2. CR (%)=(FI of phosphorylated substrate/(FI of phosphorylated substrate+FI of non-phosphorylated substrate))×100 (Formula-1) Inhibitory effect on TrkA phosphorylation (%)=(1−(CR in compound treated well−CR in positive control)/(CR in negative control−CR in positive control))×100. (Formula-2)
`Cc1c(-c2cnn(C)c2)nn(-c2ccccc2)c1NC(=O)N[C@H]1[C@H](c2ccc(F)c(F)c2)[C@@H]2CC[C@H]1N2Cc1csnn1` (racemic) [Compound I-71] returned an IC50 of 0.3 µM.

The assay is the same for the next values; noted with them: Test Example 2; human TrkA 2.5 nmol/L, ATP 500 μmol/L, 90 min at room temperature; read-out: TrkA inhibitory activity IC50.
Turning to `COCCN1C[C@@H](CC(=O)Nc2c(C)c(-c3cnn(C)c3)nn2-c2ccccc2)[C@H](c2ccc(F)c(F)c2)C1` (racemic) [Compound I-15], the IC50 is 0.143 µM. In the case of `COCC(CSC)N1C[C@@H](NC(=O)Nc2c(C)c(-c3cnn(C)c3)nn2-c2ccccc2)[C@H](c2ccc(F)c(F)c2)C1` (some centres unmarked) [Compound I-130], the IC50 came to 0.46 µM. Consider `COCC(CC#N)N1C[C@@H](NC(=O)Nc2c(C)c(-c3cnn(C)c3)nn2-c2ccccc2)[C@H](c2ccc(F)c(F)c2)C1` (some centres unmarked) [Compound I-93], for which the IC50 is 0.021 µM. On to `COCC(Cn1cccn1)N1C[C@@H](NC(=O)Nc2c(C)c(-c3cnn(C)c3)nn2-c2ccccc2)[C@H](c2ccc(F)c(F)c2)C1` (some centres unmarked) [Compound I-100], for which the IC50 worked out at 0.034 µM. As to `COC1CCC1N1C[C@@H](NC(=O)Nc2c(C)c(-c3cnn(C)c3)nn2-c2ccccc2)[C@H](c2ccc(F)c(F)c2)C1` (some centres unmarked) [Compound I-114], the IC50 was determined as 0.12 µM.

`Cc1c(-c2cnn(C)c2)nn(-c2ccccc2)c1NC(=O)N[C@@H]1CC2(CC(=O)C2)C[C@H]1c1ccccc1` (racemic) [Compound I-157]: the IC50 worked out at 3.3 µM.

The assay is the same for the next values; noted with them: human TrkA inhibition, Test Example 2; class symbols A/B/C; read-out: IC50_nM.
Take `Cc1c(-c2cnn(C)c2)nn(-c2ccccc2)c1NC(=O)N[C@@H]1CN(CCNC(=O)OC(C)(C)C)C[C@H]1c1ccc(F)c(F)c1` [Compound I-31]: the IC50 was greater than 1 µM. Still for that read-out and setting: the figure for `Cc1c(-c2cnn(C)c2)nn(-c2ccccc2)c1NC(=O)NC1CNCCC1c1ccc(F)c(F)c1` (centres unmarked) [Compound I-2] is greater than 1 µM; for `CCOC(=O)CC1C[C@@H](NC(=O)Nc2c(C)c(-c3cnn(C)c3)nn2-c2ccccc2)[C@H](c2ccccc2)C1` (some centres unmarked) [Compound I-124] it is 0.1 to 1 µM; for `COCCN1C[C@@H](NC(=O)Nc2c(C)c(-c3cnn(C)c3)nn2-c2ccccc2)[C@H](c2cccc(-c3ccncc3)c2)C1` (racemic) [Compound I-60] it is greater than 1 µM. In the case of `COCCN1C[C@@H](NC(=O)Nc2c(C)c(OCC(C)(C)O)nn2-c2ccccc2)[C@H](C2CCCCC2)C1` (racemic) [Compound I-10], the IC50 is greater than 1 µM. Regarding `COC1CC2(C1)C[C@@H](NC(=O)Nc1c(C)c(-c3cnn(C)c3)nn1-c1ccccc1)[C@H](c1ccccc1)C2` (mixture of isomers) [Compound I-170], the IC50 was greater than 1 µM. For `Cc1c(-c2cnn(C)c2)nn(-c2ccccc2)c1NC(=O)N[C@@H]1CN(C2COC(=O)C2)C[C@H]1c1ccc(F)c(F)c1` (some centres unmarked) [Compound I-152], the IC50 is greater than 1 µM. With `Cc1c(-c2cnn(C)c2)nn(-c2ccccc2)c1NC(=O)N[C@@H]1CN(C2CC(F)(F)C2)C[C@H]1c1ccc(F)c(F)c1` [Compound I-38], the IC50 is greater than 1 µM.

Consider `Cc1c(-c2cnn(C)c2)nn(-c2ccccc2)c1NC(=O)N[C@@H]1CN(C2CCC2)C[C@H]1c1ccc(F)c(F)c1` [Compound I-125], for which the IC50 is 0.1 to 1 µM. Turning to `Cc1c(-c2cnn(C)c2)nn(-c2ccccc2)c1NC(=O)N[C@@H]1CN(C2COC2)C[C@H]1c1ccc(F)c(F)c1` [Compound I-37], the IC50 lay in the range of 0.1 to 1 µM. As to `Cc1c(-c2cnn(C)c2)nn(-c2ccccc2)c1NC(=O)N[C@@H]1CN(Cc2ccccc2)[C@H]1c1ccccc1` (racemic) [Compound I-11], the IC50 is greater than 1 µM.

On to `COCCN1C[C@@H](NC(=O)C(O)c2c(C)c(-c3cnn(C)c3)nn2-c2ccccc2)[C@H](c2ccc(F)c(F)c2)C1` (some centres unmarked) [Compound I-79], for which the IC50 lay in the range of 0.1 to 1 µM.

In the case of `Cc1c(-c2cnn(C)c2)nn(-c2ccccc2)c1NC(=O)N[C@@H]1C[C@@H](C)N(C(=O)OC(C)(C)C)[C@H]1c1ccc(F)c(F)c1` (racemic) [Compound I-76], the IC50 was greater than 1 µM.

Consider `Cc1c(-c2cnn(C)c2)nn(-c2ccccc2)c1NC(=O)N[C@@H]1CC(C)C[C@H]1c1ccccc1` (some centres unmarked) [Compound I-36], for which the IC50 was less than 0.1 µM. In the case of `COCCN1C[C@@H](NC(=O)Nc2c(C)c(-c3cnn(C)c3)nn2-c2ccccc2)[C@H](c2cccc(-c3ccoc3)c2)C1` (racemic) [Compound I-51], the IC50 is less than 0.1 µM. Take `COCCC1C[C@@H](NC(=O)Nc2c(C)c(-c3cnn(C)c3)nn2-c2ccccc2)[C@H](c2ccccc2)C1` (some centres unmarked) [Compound I-88]: the IC50 was less than 0.1 µM. For `COCCC(=O)N1C[C@@H](NC(=O)Nc2c(C)c(-c3cnn(C)c3)nn2-c2ccccc2)[C@H](c2ccc(F)c(F)c2)C1` [Compound I-27], the IC50 is greater than 1 µM. As for `COCCN1C[C@@H](NC(=O)Nc2c(C)c(-c3cnn(C)c3)nn2-c2ccccc2)[C@H](c2cccc(-c3ccc(C#N)cc3)c2)C1` (racemic) [Compound I-50], the IC50 is less than 0.1 µM.

For the compound `COCC(CCl)N1C[C@@H](NC(=O)Nc2c(C)c(-c3cnn(C)c3)nn2-c2ccccc2)[C@H](c2ccc(F)c(F)c2)C1` (some centres unmarked) [Compound I-99], the IC50 is less than 0.1 µM. In the case of `COCCC1C[C@@H](NC(=O)Nc2c(C)c(-c3cnn(C)c3)nn2-c2ccccc2)[C@H](c2ccccc2)C1` (some centres unmarked) [Compound I-85], the IC50 was less than 0.1 µM.

As to `Cc1c(-c2cnn(C)c2)nn(-c2ccccc2)c1NC(=O)N[C@@H]1CN(CC(F)(F)F)C(=O)[C@H]1c1ccc(F)c(F)c1` [Compound I-74], the IC50 was greater than 1 µM. On to `COCCN1C[C@@H](NC(=O)Nc2c(C)c(-c3cnn(C)c3)nn2-c2ccccc2)[C@H](c2nc3ccccc3o2)C1` (racemic) [Compound I-156], for which the IC50 was greater than 1 µM. In the case of `Cc1c(-c2cnn(C)c2)nn(-c2ccccc2)c1NC(=O)N[C@@H]1CN(CC2CCCO2)C[C@H]1c1ccc(F)c(F)c1` (some centres unmarked) [Compound I-24], the IC50 is 0.1 to 1 µM. As for `C=C1C[C@@H](NC(=O)Nc2c(C)c(-c3cnn(C)c3)nn2-c2ccccc2)[C@H](c2ccc(F)cc2)C1` (racemic) [Compound I-65], the IC50 is less than 0.1 µM. On to `COCC1(O)C[C@@H](NC(=O)Nc2c(C)c(-c3cnn(C)c3)nn2-c2ccccc2)[C@H](c2ccccc2)C1` (some centres unmarked) [Compound I-164], for which the IC50 is greater than 1 µM. Turning to `COCCN1C[C@@H](NC(=O)Nc2c(C)c(-c3cnn(C)c3)nn2-c2ccccc2)[C@H](c2cccc(C(=O)O)c2)C1` (racemic) [Compound I-82], the IC50 was greater than 1 µM. Take `Cc1c(-c2cnn(C)c2)nn(-c2ccccc2)c1NC(=O)N[C@@H]1CN(Cc2nccn2C2CC2)C[C@H]1c1ccc(F)c(F)c1` [Compound I-147]: the IC50 was greater than 1 µM. On to `Cc1c(-c2cnn(C)c2)nn(-c2ccccc2)c1NC(=O)N[C@@H]1CN(C(CO)c2ccco2)C[C@H]1c1ccc(F)c(F)c1` (some centres unmarked) [Compound I-108], for which the IC50 was less than 0.1 µM. The same measure, in the same setting: the result for `Cc1c(-c2cnn(C)c2)nn(-c2ccccc2)c1NC(=O)N[C@@H]1CN(Cc2ccc(C#N)o2)C[C@H]1c1ccc(F)c(F)c1` [Compound I-89] reads less than 0.1 µM; that for `Cc1c(-c2cnn(C)c2)nn(-c2ccccc2)c1NC(=O)N[C@@H]1CN(C#N)C[C@H]1c1ccc(F)c(F)c1` [Compound I-173], greater than 1 µM; that for `COCC(CCO)N1C[C@@H](NC(=O)Nc2c(C)c(-c3cnn(C)c3)nn2-c2ccccc2)[C@H](c2ccc(F)c(F)c2)C1` (some centres unmarked) [Compound I-105], less than 0.1 µM. `COCC(C(=O)N(C)C)N1C[C@@H](NC(=O)Nc2c(C)c(-c3cnn(C)c3)nn2-c2ccccc2)[C@H](c2ccc(F)c(F)c2)C1` (some centres unmarked) [Compound I-155]: the IC50 was greater than 1 µM. Take `Cc1c(-c2cnn(C)c2)nn(-c2ccccc2)c1NC(=O)NC1CCCCC1Cc1ccc(Cl)cc1` (centres unmarked) [Compound I-14]: the IC50 is greater than 1 µM. As to `CCOC1CC(N2C[C@@H](NC(=O)Nc3c(C)c(-c4cnn(C)c4)nn3-c3ccccc3)[C@H](c3ccc(F)c(F)c3)C2)C1` (some centres unmarked) [Compound I-160], the IC50 is greater than 1 µM. For `COCCN1C[C@@H](NC(=O)Nc2c(C)c(-c3cnn(C)c3)nn2-c2ccccc2)[C@H](c2cccc(-c3ccccc3)c2)C1` (racemic) [Compound I-48], the IC50 is less than 0.1 µM. As for `COCCN1C[C@@H](NC(=O)Nc2c(C)c(-c3cnn(C)c3)nn2-c2ccccc2)[C@H](c2cccc(-c3cccc(C(=O)OC)c3)c2)C1` (racemic) [Compound I-57], the IC50 was in the range of 0.1 to 1 µM.

`Cc1c(-c2cnn(C)c2)nn(-c2ccccc2)c1NC(=O)N[C@@H]1CN(c2nn[nH]n2)C[C@H]1c1ccc(F)c(F)c1` [Compound I-148]: the IC50 was greater than 1 µM. Regarding `COCCN1C[C@@H](N(C)C(=O)Nc2c(C)c(-c3cnn(C)c3)nn2-c2ccccc2)[C@H](c2ccccc2)C1` (racemic) [Compound I-17], the IC50 was greater than 1 µM.

Consider `Cc1c(-c2cnn(C)c2)nn(-c2ccccc2)c1NC(=O)N[C@@H]1CC(C)(O)C[C@H]1c1ccccc1` (some centres unmarked) [Compound I-154], for which the IC50 is greater than 1 µM. Consider `COCC(C(=O)N(C)OC)N1C[C@@H](NC(=O)Nc2c(C)c(-c3cnn(C)c3)nn2-c2ccccc2)[C@H](c2ccc(F)c(F)c2)C1` (some centres unmarked) [Compound I-169], for which the IC50 is greater than 1 µM. `COCC(CNC(=N)N)N1C[C@@H](NC(=O)Nc2c(C)c(-c3cnn(C)c3)nn2-c2ccccc2)[C@H](c2ccc(F)c(F)c2)C1` (some centres unmarked) [Compound I-145]: the IC50 is greater than 1 µM. Turning to `COCCN1C[C@@H](NC(=O)Nc2c(C)c(-c3cnn(C)c3)nn2-c2ccccc2)[C@H](c2ccc3c(c2)NCCO3)C1` (racemic) [Compound I-162], the IC50 was greater than 1 µM.

Turning to `Cc1c(-c2cnn(C)c2)nn(-c2ccccc2)c1NC(=O)N[C@@H]1CN(CCOc2ccccc2)C[C@H]1c1ccc(F)c(F)c1` [Compound I-23], the IC50 fell in the range of 0.1 to 1 µM.

Source of the values: US10532985B2, “Heterocycle and carbocycle derivatives having TRKA inhibitory activity” (Shionogi & Co., Ltd., priority 2014, dated 2020).
